In patent publication US10335380B2, “Compounds suitable for the treatment of myeloproliferative neoplasms as well as methods for the diagnosis/prognosis of myeloproliferative neoplasms” (CNIC Fundacion Centro Nacional De investigaciones …, priority 2013, dated 2019):
Entries after “also recorded” stand apart in the source; their conditions may differ.

Legend:
[1] = test system: WT mice transplanted with control BM cells; experiment: In vivo treatment of WT mice transplanted with control BM cells (normal haematopoiesis); set-up: species or system mouse
Procedure: Age-matched, female wild-type C57BL/6J or Nes-gfp mice were used as recipients in bone marrow (BM) transplantation assays and for in vivo pharmacological treatments. Lethally irradiated (12 Gy) recipient mice were transplanted with 2×10^6 BM cells from Mx-Cre;JAK2V617F mice induced with plpC 8 weeks before, or from Cre-negative mice as disease-free controls. […] Vehicle (saline solution) daily injections were performed in the same way. Unless indicated, treatment was initiated 4 weeks posttransplant, when animals evidenced peripheral blood signs of MPN. Mice were randomly distributed prior to treatment initiation, and disease development was monitored over time in peripheral blood samples, using an automated blood counter. […] Mice were sacrificed at different time points and subjected to complete necropsy; BM and spleen were analysed by histology and flow cytometry; femora and skull were used for immunostainings, and haematopoietic and stromal cells were additionally used for functional assays ex vivo.
BM cell extraction, flow cytometry and fluorescence-activated cell sorting For haematopoietic cell recovery, bones were crushed in a mortar, filtered through a 40-μm mesh to obtain single cell suspensions, and depleted of red blood cells by lysis in 0.15 M NH4Cl for 10 min at 4° C. […] Biotinylated antibodies were detected with fluorochrome-conjugated streptavidin (BD Biosciences). […]

[2] = test system: Nes-creERT2;iDTA mice depleted in nestin+ cells; experiment: BRL37344 treatment of Nes-creERT2;iDTA mice depleted in nestin+ cells, transplanted with MPN BM cells; assay type: in vivo, mouse; settings: BRL37344 for 6 weeks
Procedure: Age-matched, female wild-type C57BL/6J or Nes-gfp mice were used as recipients in bone marrow (BM) transplantation assays and for in vivo pharmacological treatments. […] Vehicle (saline solution) daily injections were performed in the same way. Unless indicated, treatment was initiated 4 weeks posttransplant, when animals evidenced peripheral blood signs of MPN. Mice were randomly distributed prior to treatment initiation, and disease development was monitored over time in peripheral blood samples, using an automated blood counter. […] The neuroprotective drug 4-methylcatechol (10 μg kg-1, i.p.) was injected once daily. The JAK inhibitor INCB018424 (S-Ruxilitinib, Abmole Bioscience) was administered by oral gavage (30 mg kg-1, twice per day separated 10-12 hours) in 0.5% hydroxypropylmethylcellulose (Sigma) after solubilisation in DMSO. The IL-1 receptor antagonist (Kineret, Sobi, Stockholm, Sweden) was administered by subcutaneous osmotic pumps (Alzet) infusing a continuous dosing of 40 mg kg-1 per day. Mice were sacrificed at different time points and subjected to complete necropsy; BM and spleen were analysed by histology and flow cytometry; femora and skull were used for immunostainings, and haematopoietic and stromal cells were additionally used for functional assays ex vivo.

C[C@H](Cc1ccc(OCC(=O)O)cc1)NC[C@H](O)c1cccc(Cl)c1 [BRL37344, [4-[(2R)-2-[[(2R)-2-(3-clorophenyl)-2-hydroxyethyl]amino]propyl]phenoxy]acetic acid]
blood counts in wild-type mice ([1]; BRL37344 2 mg kg-1 i.p. twice a day): did not affect | normal HSCs / normal haematopoiesis ([1]; long-term BRL37344 treatment, 16 weeks, 2 mg kg-1 twice a day i.p.): did not compromise; also recorded: does not compromise | therapeutic effect of BRL37344 after in vivo depletion of nestin+ cells (blood counts) ([2]; Nes-creERT2;iDTA versus control mice): reduces | leukocytosis in mice depleted in nestin+ cells ([2]; started 2 weeks after transplantation combined with tamoxifen): not rescued
